Assay results reported in paper PMC10353446, “Pharmacokinetics of SPR206 in Plasma, Pulmonary Epithelial Lining Fluid, and Alveolar Macrophages following Intravenous Administration to Healthy Adult Subjects” (Antimicrobial Agents and Chemotherapy, 2023).
Where a SMILES comes first, the peptide text is derived from it. Bridges are numbered along the chain shown (N, C = ends). [ ]: non-standard residue; d: D form. The star is where a group is joined. X1 = NC[C@@H](CC(=O)*)c1cccc(Cl)c1; Dab = NCC[C@H](N)C(=O)O; Dap = NC[C@H](N)C(=O)O

Tests used:
clinical = details: human, in vivo, iv, 100 mg
Description: (§1) This was a Phase 1, single-center, multiple-dose, open-label PK study in healthy adult male and female subjects. Subjects received three 100 mg doses of SPR206 administered q8h as a 1-h IV infusion. Three consecutive doses were sufficient to achieve steady-state based on a previous Phase 1 study in healthy subjects ([36]). A screening evaluation to determine eligibility for enrollment into the study was performed within 28 days of initial dosing. Subjects who met inclusion and exclusion criteria returned to the study unit 1 day before dosing (Day -1). Subjects who met inclusion and exclusion criteria were confined to the study site from Day -1 (1 day prior to start of dosing) and remained in the study site through completion of all scheduled procedures including collection of the last PK sample and bronchoscopy procedures along with safety evaluations (Day 2). Each subject underwent 1 bronchoscopy with BAL at 2, 3, 4, 6, or 8 h after the start of the third IV infusion. Subjects were required to return for a follow-up visit on Day 7 (+2 days) after discharge from the study site. The maximum duration of participation for each subject was up to 39 days (up to 28 days for Screening, 2 days of confinement, and up to 9 days for follow-up).
Blood samples for determining SPR206 plasma concentrations were collected within 60 min pre-dose (0 h) prior to second and third doses of SPR206 only and at 2, 3, 4, 6, and 8 h after the start of the third dose of SPR206.
Concentrations of SPR206 in plasma were determined by a validated liquid chromatography with tandem mass spectrometry (LC-MS/MS) assay performed at QPS, LLC. For plasma, the assay range was 50 to 50,000 ng/mL. In plasma, intraday precision (% coefficient of variation) ranged from 1.3% to 7.7%, and accuracy (% relative error) ranged from -1.2% to 9.5%. Interday precision ranged from 2.9% to 5.3% and accuracy ranged from 1.6% to 6.0%.
PK analysis of SPR206 plasma concentrations was determined with noncompartmental PK analysis using Phoenix WinNonlin software (version 8.3, Certara Inc.). PK parameters were Tmax, Cmax, Cmin, and AUC0-8.
(§2) Actual BAL samples were collected outside the protocol-specified sampling time windows. Thus, an updated method was utilized where the PK parameters for ELF or AM were calculated from composite concentration profiles of ELF or AM, respectively, based on the 27 subjects in the BAL PK population. Some blood samples were collected outside of the planned sampling windows, and therefore, individual plasma AUC0-8 was calculated first and the mean population plasma AUC0-8 was derived from all individual AUC0-8 values.
(§3) Concentrations of SPR206 were summarized separately for plasma, ELF, and AM by nominal time point using descriptive statistics. The mean concentrations of SPR206 in BAL fluid obtained at the different BAL fluid sampling times (e.g., 2, 3, 4, 6, and 8 h) were used to estimate the AUC0-8 for SPR206 in plasma, ELF, and AM. The concentration at the final sampling time (8 h) also served as the time zero value for determining the AUC0-8 value of each matrix using Phoenix WinNonlin software (version 8.3, Certara Inc.). The ratios of the AUC0-8 of ELF or AM to the AUC0-8 of plasma (total and unbound) were calculated. Plasma protein binding analyses were not conducted as part of this study. The value used for the unbound fraction of SPR206 in plasma was 0.914 (Spero Therapeutics, Inc., data on file). The measured concentrations in ELF and AM represented unbound concentrations, since only unbound plasma fractions are considered to penetrate the lung compartments. Individual plasma concentration-time profile versus time and arithmetic mean concentration (±SD) versus time plots were presented for the concentration-time data.

[1] = Epithelial lining fluid (ELF) pharmacokinetics of SPR206 by bronchoscopy with BAL, urea dilution method; format: in vivo, human
Description: as §1
(§4) Subjects were assigned to 1 of 5 bronchoscopy sampling times at 2, 3, 4, 6, or 8 (± 10 min) after the third IV infusion of SPR206. Each subject underwent 1 standardized bronchoscopy and BAL on Day 2 at the assigned time. A blood sample to determine plasma concentrations of SPR206 and urea was obtained during the bronchoscopy procedure at each BAL sampling time (approximating the time of collection of a second aspirate of BAL). Detail descriptions of the outpatient bronchoscopy, BAL procedures, and the handling, processing, and storage of samples have been previously described ([58][–][60]).
(§5) The concentrations of SPR206 in BAL and in cell pellets were determined by Keystone Bioanalytical, Inc. using a validated LC-MS/MS method. ELF concentrations were calculated by the urea dilution method ([61], [62]). AM concentrations were determined from cell pellet drug concentrations, cell count in BAL fluid, and macrophage cell volume ([62]). The calibration curves for SPR206 were linear over a range from 2 to 1,000 ng/mL. The inter-assay precision (%CV) and accuracy (%RE) for SPR206 were 2.81% to 15.84% and -4.02% to 1.51%, respectively. The intra-assay precision (%CV) and accuracy (%RE) for SPR206 were 1.43% to 18.59% and -17.44% to 6.28%, respectively.
The concentration of urea in plasma and BAL fluid supernatants was determined using a validated LC/MS/MS method from Keystone Bioanalytical, Inc. Thirty human plasma and 30 BAL fluid samples were assayed for urea concentrations. A total of 10 samples for both plasma and BAL fluid (33.3%) were selected for testing, and the calculated assay variability was within 20%. The calibration curve for the urea assay in plasma was linear over the range from 100 to 3,000 μg/mL. The inter-assay precision (%CV) and accuracy (%RE) for SPR206 were 1.98% to 3.37% and -8.17% to 4.13%, respectively. The intra-assay precision (%CV) and accuracy (%RE) for SPR206 were 0.56% to 5.60% and -10.21% to 8.54%, respectively. The calibration range of the urea assay for BAL fluid was linear (r^2 > 0.998) over the range of 0.2 to 10 μg/mL. The inter-assay precision (%CV) and accuracy (%RE) for SPR206 were 6.40% to 9.77% and -3.22% to 1.47%, respectively. The intra-assay precision (%CV) and accuracy (%RE) for SPR206 were 0.96% to 12.08% and -11.30% to 9.15%, respectively.
Actual BAL samples were collected outside the protocol-specified sampling time windows. Thus, an updated method was utilized where the PK parameters for ELF or AM were calculated from composite concentration profiles of ELF or AM, respectively, based on the 27 subjects in the BAL PK population. […]

[2] = Alveolar macrophage (AM) pharmacokinetics of SPR206 from BAL cell pellet; format: in vivo, human
Description: as §1, §4, §5, §2
as §3, with “Individual plasma concentration-time profile versus time and arithmetic mean concentration (±SD) versus time plots were presented for the concentration-time data.” left out

[3] = Safety and tolerability in healthy subjects (Phase 1 BAL study); format: in vivo, human
Description: as §1
Subjects were continuously monitored during the bronchoscopy. Vital signs (blood pressure, heart rate, and respiratory rate) were recorded prior to the scheduled bronchoscopy time and at 15 min and 1 h following the end of bronchoscopy. Subjects were kept under observation for 2 to 3 h post-bronchoscopy for safety evaluations. Continuous pulse oximetry was conducted from the beginning of preparation of the subject for bronchoscopy until the post-procedure oxygen saturation was at least 93% on room air. Pulse oximetry was extended if a clinically significant increase in heart rate or cardiac rhythm abnormalities were detected. Other safety assessments included physical examinations, clinical laboratory monitoring (hematology, blood chemistry, and urinalysis), 12-lead ECG, and adverse event recording.

[4] = cited from earlier work
kidney cell = details: cited from earlier work
[5] = in vivo; cited from earlier work
[6] = in vivo, cited from earlier work
[7] = human, in vivo, iv; cited from earlier work
[8] = BAL sampling time 2 hours post-dose
[9] = BAL sampling time 2 hours post-dose, unbound fraction 0.914
[10] = BAL sampling time 3 hours post-dose
[11] = BAL sampling time 3 hours post-dose, unbound fraction 0.914
[12] = BAL sampling time 4 hours post-dose
[13] = BAL sampling time 4 hours post-dose, unbound fraction 0.914
[14] = BAL sampling time 6 hours post-dose
[15] = BAL sampling time 6 hours post-dose, unbound fraction 0.914
[16] = BAL sampling time 8 hours post-dose
[17] = BAL sampling time 8 hours post-dose, unbound fraction 0.914
[18] = both sexes, human, in vivo, iv, 100 mg

## CC(C)C[C@@H]1NC(=O)[C@@H](Cc2ccccc2)NC(=O)[C@H](CCN)NC(=O)[C@@H](NC(=O)[C@H](CN)NC(=O)[C@@H](NC(=O)C[C@H](CN)c2cccc(Cl)c2)[C@@H](C)O)CCNC(=O)[C@H]([C@@H](C)O)NC(=O)[C@H](CCN)NC(=O)[C@H](CCN)NC1=O [SPR206] (X1-T[Dap][Dab][Dab][dF]L[Dab][Dab]T; lactam 3-C (inferred))
clinical; both sexes
  Vd: 19.8 L
  half-life: 3.6 h
clinical; both sexes, AUC0-8, geometric mean (CV%)
  AUC(0-t): 19800 ng·h/mL
clinical; both sexes, arithmetic mean (SD)
  Cmax: 4400 ng/mL
clinical; both sexes, geometric mean (CV%)
  Cmax: 4300 ng/mL
clinical; both sexes, Median time to peak plasma concentrations (Tmax)
  Tmax: 2 h
clinical; both sexes, Tmax range
  Tmax: 1.8 to 2.9 h
clinical; both sexes, Tmax, arithmetic mean (SD)
  Tmax: 2.1 h
clinical; both sexes, Tmax, geometric mean (CV%)
  Tmax: 2.1 h
clinical; both
  AUC0-8, geometric mean (CV%): 19817.9 (17.9) h*ng/mL
  Cmax, geometric mean (CV%): 4333.4 (17.2) ng/mL
  t1/2, geometric mean (CV%): 3.6 (13.5) hours
clinical
  Vz, geometric mean (CV%): 19502.1 (18.1) mL
[1]; [8]
  Ratio ELF to total plasma concentration, arithmetic mean ± SD: 0.183 ± 0.032
[1]; [9]
  Ratio ELF to unbound plasma concentration, arithmetic mean ± SD: 0.200 ± 0.035
[1]; [10]
  Ratio ELF to total plasma concentration, arithmetic mean ± SD: 0.199 ± 0.066
[1]; [11]
  Ratio ELF to unbound plasma concentration, arithmetic mean ± SD: 0.218 ± 0.072
[1]; [12]
  Ratio ELF to total plasma concentration, arithmetic mean ± SD: 0.190 ± 0.067
[1]; [13]
  Ratio ELF to unbound plasma concentration, arithmetic mean ± SD: 0.208 ± 0.074
[1]; [14]
  Ratio ELF to total plasma concentration, arithmetic mean ± SD: 0.428 ± 0.176
[1]; [15]
  Ratio ELF to unbound plasma concentration, arithmetic mean ± SD: 0.469 ± 0.192
[1]; [16]
  Ratio ELF to total plasma concentration, arithmetic mean ± SD: 0.347 ± 0.138
[1]; [17]
  Ratio ELF to unbound plasma concentration, arithmetic mean ± SD: 0.380 ± 0.151
[1]; after third 100 mg IV dose, plasma n = 34, ELF n = 27
  Ratio of AUC0-8 of ELF to AUC0-8 of total plasma: 0.242
[1]; after third 100 mg IV dose, plasma n = 34, ELF n = 27, unbound fraction 0.914
  Ratio of AUC0-8 of ELF to AUC0-8 of unbound plasma: 0.264
[1]; [18]
  AUC(0-t): 4860 ng·h/mL
  Cmax: 736 ng/mL
  Tmax: 2.2 h
[2]; [8]
  Ratio AM to total plasma concentration, arithmetic mean ± SD: 0.206 ± 0.114
[2]; [9]
  Ratio AM to unbound plasma concentration, arithmetic mean ± SD: 0.226 ± 0.124
[2]; [10]
  Ratio AM to total plasma concentration, arithmetic mean ± SD: 0.184 ± 0.065
[2]; [11]
  Ratio AM to unbound plasma concentration, arithmetic mean ± SD: 0.201 ± 0.071
[2]; [12]
  Ratio AM to total plasma concentration, arithmetic mean ± SD: 0.223 ± 0.089
[2]; [13]
  Ratio AM to unbound plasma concentration, arithmetic mean ± SD: 0.244 ± 0.097
[2]; [14]
  Ratio AM to total plasma concentration, arithmetic mean ± SD: 0.519 ± 0.223
[2]; [15]
  Ratio AM to unbound plasma concentration, arithmetic mean ± SD: 0.568 ± 0.244
[2]; [16]
  Ratio AM to total plasma concentration, arithmetic mean ± SD: 0.503 ± 0.192
[2]; [17]
  Ratio AM to unbound plasma concentration, arithmetic mean ± SD: 0.550 ± 0.210
[2]; after third 100 mg IV dose, plasma n = 34, AM n = 27
  Ratio of AUC0-8 of AM to AUC0-8 of total plasma: 0.300
[2]; after third 100 mg IV dose, plasma n = 34, AM n = 27, unbound fraction 0.914
  Ratio of AUC0-8 of AM to AUC0-8 of unbound plasma: 0.328
[2]; [18]
  AUC(0-t): 6030 ng·h/mL
  Cmax: 861 ng/mL
  Tmax: 6.4 h
[3]; 100 mg IV q8h x 3 doses
  Deaths, serious AEs, AEs leading to discontinuation: No deaths, serious AEs, or AEs leading to study drug discontinuation or study discontinuation were reported
[3]; human, in vivo, iv
  TEAEs reported as mild in severity (of 40 reported TEAEs): 85.0%
[3]; human, in vivo, iv, 100 mg
  Clinical laboratory parameters including blood urea nitrogen, serum creatinine, estimated creatinine clearance: No clinically significant abnormalities
[4]
  Unbound fraction in plasma: 0.914
Kidney cell
  Kidney cell cytotoxicity: reduced kidney cell cytotoxicity
[5]
  Exposure in the kidney: lower exposure in the kidney than polymyxin B

## colistin
[6]; iv
  Lung concentrations: undetectable
[6]
  Lung concentrations relative to MIC50 for P. aeruginosa: below the MIC50 for P. aeruginosa
[7]
  Levels in BAL fluid: undetectable levels
